According to PubChem BioAssay AID1745844 (Carcinogenic Potency Database (CPDB), 2022):
“And” between values parts separate entries of the source, which are not always exact repeats. Equal values may be shown once. The source made the active and inactive calls. The rule behind the calls is not given here.

Test system: rodent lifetime carcinogenesis bioassay, tumor incidence TD50
Experiment: carcinogenic potency in animals, long-term in vivo studies, CPDB compilation (AID 1745844)
[1] = mouse, strain A/He, females, in feed, site: liver, lesion: hepatoma, dosed 104 weeks, study length 104 weeks
[2] = mouse, strain A/He, females, in feed, site: lung, lesion: one or several types, types not named, dosed 104 weeks, study length 104 weeks
[3] = mouse, strain C3HfB, females, in feed, site: lung, lesion: one or several types, types not named, dosed 104 weeks, study length 104 weeks
[4] = mouse, strain CFLP, females, in feed, site: liver, lesion: hepatocellular tumor, dosed 78 weeks, study length 78 weeks

CN(N=O)c1ccccn1
TD50 (rat, strain BD VI, females, by gavage, site: any site (literature study), lesion: benign tumor, dosed 72 weeks, study length 72 weeks): 3.05 mg/kg/day
TD50 (rat, strain BD VI, females, by gavage, site: any site (literature study), lesion: malignant tumor, dosed 72 weeks, study length 72 weeks): 0.668 mg/kg/day
TD50 (rat, strain BD VI, females, by gavage, site: any site (literature study), lesion: several types, types named in the paper, dosed 72 weeks, study length 72 weeks): 0.28 mg/kg/day
TD50 (rat, strain BD VI, females, by gavage, site: esophagus, lesion: several types, types named in the paper, dosed 72 weeks, study length 72 weeks): 0.214 mg/kg/day

Nc1c(Cl)c(Cl)nc(C(=O)O)c1Cl
carcinogen call (mouse, strain B6C3F1, females, in feed, site: any site (literature study), lesion: several types, types named in the paper, dosed 80 weeks, study length 90 weeks): negative (inactive)
TD50 (mouse, strain B6C3F1, females, in feed, site: liver, lesion: hepatocellular adenoma + hepatocellular carcinoma + neoplastic nodule, dosed 80 weeks, study length 90 weeks): 20100 mg/kg/day
carcinogen call (mouse, strain B6C3F1, males, in feed, site: any site (literature study), lesion: several types, types named in the paper, dosed 80 weeks, study length 90 weeks): negative (inactive)
TD50 (rat, strain Fischer 344, females, in feed, site: liver, lesion: hepatocellular adenoma, dosed 104 weeks, study length 104 weeks): 15800 mg/kg/day (inactive)
carcinogen call (rat, strain Fischer 344, females, in feed, site: thyroid gland, lesion: parafollicular-cell adenoma, dosed 104 weeks, study length 104 weeks): negative (inactive)
TD50 (rat, strain Fischer 344, males, in feed, site: liver, lesion: hepatocellular adenoma, dosed 104 weeks, study length 104 weeks): 5560 mg/kg/day (inactive)
TD50 (rat, strain Fischer 344, males, in feed, site: liver, lesion: hepatocellular carcinoma, dosed 104 weeks, study length 104 weeks): 8710 mg/kg/day (inactive)
carcinogen call (rat, strain Osborne-Mendel, females, in feed, site: any site (literature study), lesion: several types, types named in the paper, dosed 80 weeks, study length 113 weeks): negative (inactive)
TD50 (rat, strain Osborne-Mendel, females, in feed, site: liver, lesion: hepatocellular adenoma + hepatocellular carcinoma + neoplastic nodule, dosed 80 weeks, study length 113 weeks): 1640 mg/kg/day
TD50 (rat, strain Osborne-Mendel, females, in feed, site: liver, lesion: neoplastic nodule, dosed 80 weeks, study length 111 weeks): 1700 mg/kg/day
TD50 (rat, strain Osborne-Mendel, males, in feed, site: any site (literature study), lesion: several types, types named in the paper, dosed 80 weeks, study length 113 weeks): 2930 mg/kg/day (inactive)
TD50 (rat, strain Osborne-Mendel, males, in feed, site: liver, lesion: hepatocellular adenoma + hepatocellular carcinoma + neoplastic nodule, dosed 80 weeks, study length 113 weeks): 1320 mg/kg/day

C#C[C@]1(O)CC[C@H]2[C@@H]3CCc4cc(OC)ccc4[C@H]3CC[C@@]21C (tested in a mixture with another compound)
TD50 [1]: 25.2 mg/kg/day (inactive)
carcinogen call [1]: negative (inactive)
TD50 [2]: 4.62 mg/kg/day (inactive) and 4.31 mg/kg/day (inactive)
carcinogen call [2]: negative (inactive)
TD50 (mouse, strain BALB/c, females, in feed, site: several sites, sites named in the paper, lesion: squamous-cell carcinoma, dosed 86 weeks, study length 86 weeks): 2 mg/kg/day
carcinogen call (mouse, strain BALB/cHe, females, in feed, site: lung, lesion: one or several types, types not named, dosed 104 weeks, study length 104 weeks): negative (inactive)
carcinogen call (mouse, strain C3H/He (MTV+), females, in feed, site: liver, lesion: hepatoma, dosed 104 weeks, study length 104 weeks): negative (inactive)
TD50 (mouse, strain C3HfB, females, in feed, site: all sites, lesion: fibrosarcoma, dosed 104 weeks, study length 104 weeks): 3.93 mg/kg/day (inactive)
carcinogen call (mouse, strain C3HfB, females, in feed, site: liver, lesion: hepatoma, dosed 104 weeks, study length 104 weeks): negative (inactive)
TD50 [3]: 27.6 mg/kg/day (inactive)
carcinogen call [3]: negative (inactive)
TD50 (mouse, strain C57BL/He, females, in feed, site: hypophysis, lesion: chromophobe adenoma, dosed 104 weeks, study length 104 weeks): 1.75 mg/kg/day and 1.82 mg/kg/day
carcinogen call (mouse, strain C57BL/He, females, in feed, site: liver, lesion: hepatoma, dosed 104 weeks, study length 104 weeks): negative (inactive)
TD50 (mouse, strain C57BL/He, females, in feed, site: lung, lesion: one or several types, types not named, dosed 104 weeks, study length 104 weeks): 20.7 mg/kg/day (inactive)
carcinogen call (mouse, strain C57L/He x 129/Rr x C3HeB/De x SWR/Ly, females, by gavage, site: any site (literature study), lesion: several types, types named in the paper, dosed 69 weeks, study length 69 weeks): negative (inactive)
TD50 (mouse, strain C57L/He x 129/Rr x C3HeB/De x SWR/Ly, females, by gavage, site: any site (literature study), lesion: several types, types named in the paper, dosed 69 weeks, study length 82 weeks): 0.332 mg/kg/day (inactive)
carcinogen call (mouse, strain C57L/He x 129/Rr x C3HeB/De x SWR/Ly, females, by gavage, site: lung, lesion: one or several types, types not named, dosed 69 weeks, study length 69 weeks): negative (inactive)
TD50 (mouse, strain C57L, females, by gavage, site: pituitary gland, lesion: one or several types, types not named, dosed 89 weeks, study length 89 weeks): 0.151 mg/kg/day
TD50 [4]: 143 mg/kg/day (inactive)
carcinogen call [4]: negative (inactive)
carcinogen call (mouse, strain CFLP, males, in feed, site: liver, lesion: hepatocellular tumor, dosed 78 weeks, study length 78 weeks): negative (inactive)
TD50 (mouse, strain Swiss Webster, females, by gavage, site: liver, lesion: hepatocellular tumor, dosed 65 weeks, study length 80 weeks): 20.8 mg/kg/day (inactive)

O=c1c(O)c(-c2ccc(O)cc2)oc2cc(O)cc(O)c12
TD50 (rat, strain ACI, females, in feed, site: any site (literature study), lesion: several types, types named in the paper, dosed 77 weeks, study length 77 weeks): 55.3 mg/kg/day (inactive)
TD50 (rat, strain ACI, males, in feed, site: adrenal gland, lesion: cortical adenoma, dosed 77 weeks, study length 77 weeks): 17.9 mg/kg/day (inactive)
